Test system: 624824-186-R-J3-PDC multicell spheroids, viability
Assay: Anticancer human tumor 624824-186-R-J3-PDC patient-derived colon adenocarcinoma cell line growth inhibition [PI3K]
Conditions: for viability, T/C: stronger effect = lower value
Description: Combinatorial screen of targeted agents with the PI3K inhibitors inavolisib, alpelisib, duvelisib, and copanlisib in multi-cell type tumor spheroids
A high-throughput screen of multi-cell type tumor spheroids was designed to identify active combinations of targeted small molecules and PI3K pathway inhibitors. Complex spheroids include a stromal component modeled by human endothelial cells (HUVEC) and fibroblasts modeled by human mesenchymal stem cells (MSCs). The concentration ranges selected for each drug and investigational agent were based upon clinically achievable concentrations if the clinical Cmax of the agent was known.
Compounds. The drugs and investigational agents: inavolisib (NSC800729), alpelisib (NSC765974), duvelisib (NSC772469), copanlisib (NSC816437), ipatasertib (NSC767898), afuresertib (NSC778305), talazoparib (NSC767125), sapanisertib (NSC764658), selumetinib (NSC741078), tovorafenib (DAY101, NSC766906), vemurafenib (NSC761431), ravoxertinib (NSC781343), sotorasib (NSC818433), MRTX1133 (NSC 836407), abemaciclib (NSC 768073), palbociclib (NSC758247), venetoclax (NSC 766270), SY5609 (NSC837396), enzalutamide (NSC755605), and darolutamide (NSC825331), were obtained from the National Cancer Institute (NCI) Developmental Therapeutics Program Chemical Repository. The FDA-approved anticancer drug set is available from the NCI Developmental Therapeutics Program. […] The stock solutions were prepared in dimethyl sulfoxide (DMSO, Sigma-Aldrich, St. Louis, MO, cat. D2650) at 800-fold the tested concentration and stored at -70 degrees C prior to their use. All drugs and investigational agents were tested over a range starting from a high concentration at or near the clinical Cmax and decreasing in half-log increments. If the clinical Cmax for an agent had not been determined, the highest concentration tested was 10 microM.
Cell Culture. All cells were maintained in an incubator at 37 degrees C and 5% CO2 with 95% humidity. The PDC lines were cultured according to standard operating procedures established by the NCI PDMR (https://pdmr.cancer.gov/sops/default.htm). All PDCs were thawed and cultured in Matrigel-coated flasks prepared with a working solution of 1X Ham's F-12 nutrient mix, without supplementation (Invitrogen, Waltham, MA, cat. 11765054), 100 U/mL penicillin-streptomycin (Invitrogen, cat. 15140122), and 2.5% Matrigel (Corning Inc., Corning, NY, cat. 354248) for the first three passages. The 354836-022-R-J1-PDC, 475296-252-R-J1-PDC, and 997726-040-R-J2-PDC lines were cultured in 6A media, which includes advanced DMEM/F-12 (Thermo Fisher Scientific, cat. 12634028), 10 mM HEPES (Thermo Fisher Scientific, cat. 15630080), 1X GlutaMAX supplement (Thermo Fisher Scientific, cat. 35050061), 0.1 mg/mL primocin (InvivoGen, San Diego, CA, cat. ant-pm-2), 10% defined fetal bovine serum, heat inactivated (HyClone Laboratories Inc., Logan, UT, cat. SH30070.03HI), 50% L-WRN conditioned media (ATCC, cat. CRL-3276), 1.25 mM N-Acetyl-L-cysteine (Sigma-Aldrich, cat. A9165), 10 mM nicotinamide (Sigma-Aldrich, cat. N0636), 1X B-27 supplement (Thermo Fisher Scientific, cat. 17504044), 1X N-2 supplement (Thermo Fisher Scientific, cat. 17502048), and 10 microM Y-27632 dihydrochloride (Tocris Bioscience, Bristol, United Kingdom, cat. 1254). The 624824-186-R-J2-PDC line was cultured in 6C/Colon 1B media, which includes all 6A media components plus 50 ng/mL human EGF recombinant protein (Thermo Fisher Scientific, cat. PHG0311). […]
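Further: spheroids exposed to agents for seven days before luminescence read.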
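Wherever viability, T/C is given: luminescent signal used as a stand-in for spheroid viability; percent viability relative to DMSO vehicle control wells taken as 100%.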

## CCN1CCN(Cc2ccc(Nc3ncc(F)c(-c4cc(F)c5nc(C)n(C(C)C)c5c4)n3)nc2)CC1 + COc1c(OCCCN2CCOCC2)ccc2c3n(c(=NC(=O)c4cnc(N)nc4)nc12)CCN3
Curve of first compound, second compound 0.00316 µM
  IC50: > 1000 nM
Curve of first compound, second compound 0.01 µM
  IC50: > 1000 nM
Curve of first compound, second compound 0.0316 µM
  IC50: > 1000 nM
Curve of first compound, second compound 0.1 µM
  IC50: 59.7 nM
Curve of first compound, second compound 0.316 µM
  IC50: < 3.16 nM
Curve of first compound, second compound 1 µM
  IC50: < 3.16 nM
Second compound 0.00316 µM, first compound 0.00316 µM
  viability, T/C: 99%
Second compound 0.00316 µM, first compound 0.01 µM
  viability, T/C: 107%
Second compound 0.00316 µM, first compound 0.0316 µM
  viability, T/C: 104%
Second compound 0.00316 µM, first compound 0.1 µM
  viability, T/C: 116%
Second compound 0.00316 µM, first compound 0.316 µM
  viability, T/C: 107%
Second compound 0.00316 µM, first compound 1 µM
  viability, T/C: 94.8%
Second compound 0.01 µM, first compound 0.00316 µM
  viability, T/C: 99.2%
Second compound 0.01 µM, first compound 0.01 µM
  viability, T/C: 94.9%
Second compound 0.01 µM, first compound 0.0316 µM
  viability, T/C: 99.7%
Second compound 0.01 µM, first compound 0.1 µM
  viability, T/C: 95.2%
Second compound 0.01 µM, first compound 0.316 µM
  viability, T/C: 76.5%
Second compound 0.01 µM, first compound 1 µM
  viability, T/C: 74.7%
Second compound 0.0316 µM, first compound 0.00316 µM
  viability, T/C: 99%
Second compound 0.0316 µM, first compound 0.01 µM
  viability, T/C: 99.1%
Second compound 0.0316 µM, first compound 0.0316 µM
  viability, T/C: 88.3%
Second compound 0.0316 µM, first compound 0.1 µM
  viability, T/C: 68.5%
Second compound 0.0316 µM, first compound 0.316 µM
  viability, T/C: 57.5%
Second compound 0.0316 µM, first compound 1 µM
  viability, T/C: 61.5%
Second compound 0.1 µM, first compound 0.00316 µM
  viability, T/C: 81%
Second compound 0.1 µM, first compound 0.01 µM
  viability, T/C: 73.2%
Second compound 0.1 µM, first compound 0.0316 µM
  viability, T/C: 57.5%
Second compound 0.1 µM, first compound 0.1 µM
  viability, T/C: 40.8%
Second compound 0.1 µM, first compound 0.316 µM
  viability, T/C: 40.7%
Second compound 0.1 µM, first compound 1 µM
  viability, T/C: 50.5%
Second compound 0.316 µM, first compound 0.00316 µM
  viability, T/C: 48.4%
Second compound 0.316 µM, first compound 0.01 µM
  viability, T/C: 41.7%
Second compound 0.316 µM, first compound 0.0316 µM
  viability, T/C: 41.5%
Second compound 0.316 µM, first compound 0.1 µM
  viability, T/C: 27.4%
Second compound 0.316 µM, first compound 0.316 µM
  viability, T/C: 41.7%
Second compound 0.316 µM, first compound 1 µM
  viability, T/C: 52.4%
Second compound 1 µM, first compound 0.00316 µM
  viability, T/C: 27.7%
Second compound 1 µM, first compound 0.01 µM
  viability, T/C: 32.4%
Second compound 1 µM, first compound 0.0316 µM
  viability, T/C: 23.4%
Second compound 1 µM, first compound 0.1 µM
  viability, T/C: 24.3%
Second compound 1 µM, first compound 0.316 µM
  viability, T/C: 34.9%
Second compound 1 µM, first compound 1 µM
  viability, T/C: 54.8%

## CC(Nc1ccc2c(c1)OCCn1cc(N3C(=O)OCC3C(F)F)nc1-2)C(N)=O (centres undefined)
Compound 0.00316 µM
  viability, T/C: 101% [middle of 7 runs]
Compound 0.01 µM
  viability, T/C: 103% [middle of 7 runs]
Compound 0.0316 µM
  viability, T/C: 108% [middle of 7 runs]
Compound 0.1 µM
  viability, T/C: 109% [middle of 7 runs]
Compound 0.316 µM
  viability, T/C: 100% [middle of 7 runs]
Compound 1 µM
  viability, T/C: 88.5% [middle of 7 runs]
Compound alone, run of 04/24/2023
  IC50: > 1000 nM

Reference: PubChem BioAssay AID1963977 (Molecular Pharmacology Branch, DTP, NCI, 2024)
